Entries after “also recorded” stand apart in the source; their conditions may differ.
Key:
[1] = tested on: GTM3 cells; test: Cell morphology (DIC), stress fibers and focal adhesions (F-actin, paxillin staining); assay type: cell-based, human; settings: 1 h, serum-rich medium
Description: Cells were first treated for the indicated time period in the serum-rich medium described earlier. Following a brief rinse with PBS, cells were fixed with 4% paraformaldehyde for 10 min and then permeabilized with 0.1% Triton-X for 10 min. For phosphorylated MLC staining, cells were blocked with 10% goat serum + 3% BSA, and, for vinculin and paxillin staining, the cells were blocked with 10% FBS for 1 h. Cells were incubated in primary antibody overnight, followed by secondary antibody incubation for 1 h. Double staining for actin was performed by incubating cells in Texas-red conjugated phalloidin for 20 min. After extensive washing, coverslips were mounted using ProLong AntiFade (Molecular Probes, Eugene, OR). Images were acquired using a Leica SP5 (Leica Microsystems, Bannockburn, IL) confocal microscope. After similar treatments, DIC images of cells fixed on coverslips were also obtained using a Nikon E800 (Nikon Instruments, Melville, NY) microscope.

[2] = tested on: MLC phosphorylation; test: Western blot of MLC phosphorylation (ppMLC) in GTM3 cells; assay type: cell-based, human; settings: 1 h, serum-rich medium, densitometry of western blot, read-out: IC50 for dephosphorylation of MLC
Description: (§1) Cell cultures of an immortalized human glaucomatous trabecular meshwork (GTM3) cell line were grown at 37 °C in 5% CO2 in Dulbecco’s Minimum Essential Medium (DMEM + Glutamax) supplemented with 10% fetal bovine serum and 10 μg/ml of gentamicin (Invitrogen, Grand Island, NY) as previously described. Upon reaching confluence, cells were divided using 0.05% trypsin. Cells of passages 13 to 20 were used in our experiments.
Following treatment with the desired drugs/agents, cells were rinsed in PBS and solubilized in 300 µl of 2× Laemmli sample buffer. The lysate was sonicated briefly and boiled for 5 min. Equal amounts of protein (30 μg) were loaded in 8% or 12% SDS–PAGE gels. Following electrophoresis, proteins were transferred to a nitrocellulose membrane (Biorad, Hercules, CA), blocked with 5% fat-free milk for 1 h, and incubated with specific phospho-MYPT1 or phospho-MLC antibodies overnight. The membranes were next incubated with the appropriate secondary antibodies for 1 h. […]
A one-way ANOVA was used to compare mean values for different treatments with Bonferroni’s post-test analysis (Prism 5.0 for Windows; GraphPad Software, Inc., San Diego, CA). Results are expressed as mean±SEM. For analysis of ECIS (electrical cell-substrate impedance sensing) data, normalized numerical values from individual experiments were pooled and expressed as mean±SEM. […]

[3] = tested on: GTM3 cells (cell-matrix adhesion); test: Electrical cell-substrate impedance sensing (ECIS), cell-matrix adhesion; assay type: cell-based, human
Description: Cells were seeded on gold electrode-plated culture plates (8W10E+) and placed in an incubator at 37 °C with humidified air and 5% CO2. The attachment and spreading of the cells on electrodes was monitored continuously at 4 kHz until the observed electrical resistance reached a plateau and stabilized. This usually occurred within 20–24 h after inoculation. Impedance to current flow was measured at different frequencies (25 Hz to 60 kHz) periodically before and after inoculation. After reaching the steady-state of electric-cell substrate resistance, cells were exposed to the ROCK inhibitors, and the impedance was assessed at different frequencies every 30 min. The change in the measured resistance normalized to that of the bare electrode was taken as a measure of cell-matrix adhesion as discussed further below.
ECIS involves the measurement of impedance to a small AC current applied across cells grown to confluence on planar gold microelectrodes. The measurement is non-invasive, and off-the-shelf instruments such as ECIS^TM 1600R (Applied Biophysics, Inc., Troy, NY) make use of a lock-in amplifier to measure small changes in electrical impedance at a high-temporal resolution. We have previously employed ECIS to assess the integrity of the apical junctional complex of the corneal endothelial monolayers. For epithelial monolayers, such as the corneal endothelium, the resistive component of the measured impedance implies trans-endothelial electrical resistance for current flow between the cells when confluent on the electrode. However, with non-epithelial cells, such as fibroblasts, measured impedance arises mainly out of resistance to current flow across the cell substrate (i.e., cell-matrix adhesion). In this study, we examined the dynamics of such cell-matrix resistance (i.e., resistive component of the measured impedance) with TM cells. […] This increase can be attributed to the attachment of cells to the substrate (gold electrode), which leads to an increased resistance to current flow. […]

[4] = tested on: GTM3 cells (actomyosin contraction); test: Collagen gel contraction assay with GTM3 cells; assay type: cell-based, human; settings: for increase in the gel area (relaxation) compared with the control: 10 μM
Description: A collagen gel contraction assay was performed as previously described. The wells of 24-well culture plates were coated with 1% BSA at 37 °C for 1 h. Glaucomatous trabecular meshwork cells were trypsinized and resuspended in culture medium at a density of 1×10^7 cells/ml. Rat-tail collagen Type I (BD Biosciences, San Jose, CA), 10× DMEM (Sigma, St. Louis, MO), reconstitution buffer (pH 7.3), TM cell suspension, and distilled water were mixed on ice to obtain a final concentration of 1.9 mg/ml of collagen and a final cell density of 2×10^5 cells/ml. The resultant mixture (0.5 ml) was added to each well of the BSA-coated culture clusters, and collagen gel formation was induced by incubation at 37 °C for 90 min. Serum-rich or serum-free DMEM (0.5 ml), without or with the drugs, was then added on top of the gels. After 1 h, the gels were freed from the walls of the culture wells. They were subsequently imaged every 24 h for 2 days. The area was calculated using NIH ImageJ software.

[5] = tested on: MYPT1 phosphorylation at Thr853; test: Western blot of MYPT1 phosphorylation at Thr853 in GTM3 cells; assay type: cell-based, human; settings: 1 h, serum-rich medium; for effect on MYPT1 phosphorylation at Thr853: 5 μM; for IC50: GTM3 cells, densitometry of western blot, read-out: IC50 for dephosphorylation of MYPT1 at Thr853
Description: as §1
(§2) Following treatment with the desired drugs/agents, cells were rinsed in PBS and solubilized in 300 µl of 2× Laemmli sample buffer. The lysate was sonicated briefly and boiled for 5 min. Equal amounts of protein (30 μg) were loaded in 8% or 12% SDS–PAGE gels. Following electrophoresis, proteins were transferred to a nitrocellulose membrane (Biorad, Hercules, CA), blocked with 5% fat-free milk for 1 h, and incubated with specific phospho-MYPT1 or phospho-MLC antibodies overnight. The membranes were next incubated with the appropriate secondary antibodies for 1 h. The blots were finally washed and developed using an enhanced chemiluminescence kit (Pierce, Rockford, IL) according to the manufacturer’s instructions.
(§3) A one-way ANOVA was used to compare mean values for different treatments with Bonferroni’s post-test analysis (Prism 5.0 for Windows; GraphPad Software, Inc., San Diego, CA). Results are expressed as mean±SEM. For analysis of ECIS (electrical cell-substrate impedance sensing) data, normalized numerical values from individual experiments were pooled and expressed as mean±SEM. A p value of less than 0.05 was considered statistically significant. “n” denotes the number of independent experiments performed. […] The calculations assume that log [drug] versus response follow a sigmoidal shape and were performed with Prism 5.0. The reported values of R indicate goodness of fit.

[6] = tested on: normal HTM cells; settings: 10 μM; cited from earlier work
[7] = tested on: MYPT1 phosphorylation at Thr696; test: Western blot of MYPT1 phosphorylation at Thr696 in GTM3 cells; assay type: cell-based, human; settings: 1 h, serum-rich medium; for IC50: GTM3 cells, densitometry of western blot, read-out: IC50 for dephosphorylation of MYPT1 at Thr696
Description: as §1, §2, §3

[8] = tested on: paxillin (Tyr118) phosphorylation; test: Serum-induced tyrosine phosphorylation of paxillin (Tyr118), western blot; assay type: cell-based, human; settings: 1 μM pretreatment, 10% serum added to serum-starved cells
[9] = rabbits; cited from earlier work
[10] = tested on: FAK (Tyr397) phosphorylation; test: Serum-induced tyrosine phosphorylation of FAK (Tyr397), western blot; assay type: cell-based, human; settings: 1 μM pretreatment, 10% serum added to serum-starved cells

C[C@@H](N)[C@H]1CC[C@H](C(=O)Nc2ccncc2)CC1 [Y-27632]
change in cell shape (DIC images) ([1]; 5 μM): apparent shrinkage, with cells assuming a stellate appearance
effect on stress fibers and focal adhesions ([1]; 5 μM): complete loss of stress fibers and focal adhesions
IC50 [2]: 1060 nM
change in electrical cell-substrate resistance ([3]; 5 μM, up to 2 h): significant decrease in the peak resistance
increase in the gel area (relaxation) compared with the control ([4]; 48 h, 10% serum): 50%
effect on MYPT1 phosphorylation at Thr853 [5]: complete dephosphorylation
IC50 [5]: 658 nM
gel contraction allowed [6]: 30%
effect on MYPT1 phosphorylation at Thr696 ([7]; 5 μM): comparatively smaller reduction; also recorded: only slightly reduced; also recorded: only a marginal decrease
IC50 [7]: 2270 nM

C[C@@H](N)c1ccc(C(=O)Nc2ccnc3[nH]ccc23)cc1 [Y-39983]
change in cell shape (DIC images) ([1]; 1 μM): apparent shrinkage, with cells assuming a stellate appearance
effect on stress fibers and focal adhesions ([1]; 1 μM): complete loss of stress fibers and focal adhesions
effect on stress fibers and focal adhesions ([1]; 5 μM): loss of stress fibers
effect on serum-induced phosphorylation of paxillin at Tyr118 [8]: opposed
IC50 [2]: 14 nM
change in electrical cell-substrate resistance ([3]; 1 μM, up to 2 h): significant decrease in resistance; also recorded: rapid and more pronounced
increase in the gel area compared with the control ([4]; 1 μM, 48 h, 10% serum): 86±5%
decrease in the contraction of the collagen gels ([4]; 5 μM): 100%
decrease in IOP compared to Y-27632 [9]: 10 fold
effect on MYPT1 phosphorylation at Thr853 [5]: complete dephosphorylation
IC50 [5]: 15 nM
effect on serum-induced tyrosine phosphorylation of FAK at Tyr397 [10]: opposed
IC50 [7]: 177 nM

Cc1ccc2c(c1)C(=O)C1(O)CCN(c3ccccc3)C1=N2 (stereo not shown) [blebbistatin]
increase in the gel area (relaxation) compared with the control ([4]; 48 h, 10% serum): 102±1.3%

C=C1[C@@H](C)[C@H]2[C@H](Cc3ccccc3)NC(=O)[C@]23[C@H](OC(C)=O)/C=C/[C@@](C)(O)C(=O)[C@@H](C)C/C=C/[C@H]3[C@@H]1O [cytochalasin D]
change in electrical cell-substrate resistance ([3]; 0.125 mg/ml): significant decrease in the measured resistance; also recorded: substantial decrease in the resistance
